From patent US8106203B2, “Assay methods using chemiluminescent detection of peroxidase” (Lumigen, Inc., priority 2001, dated 2012) come the findings set out here.

The target in series [1] is T1, HRP (Armoracia rusticana, UniProt P00433).
T1 sequence (P00433 31-338): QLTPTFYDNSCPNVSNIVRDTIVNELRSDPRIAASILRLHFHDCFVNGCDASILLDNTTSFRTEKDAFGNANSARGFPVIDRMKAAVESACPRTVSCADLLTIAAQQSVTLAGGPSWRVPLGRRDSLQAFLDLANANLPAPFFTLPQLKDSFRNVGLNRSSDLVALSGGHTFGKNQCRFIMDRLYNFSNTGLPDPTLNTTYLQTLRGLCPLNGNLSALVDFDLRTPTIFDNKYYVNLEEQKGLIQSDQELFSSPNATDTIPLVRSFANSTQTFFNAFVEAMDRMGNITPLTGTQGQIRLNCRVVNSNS
The series can be described thus: Comparison of signal intensity (Example 9): chemiluminescence on reaction of reagent with HRP. The series is classed as biochemical, horseradish. To be noted: 3.5×10^−16 moles of HRP. How it is done: Reagent compositions comprising 0.01 M tris buffer, pH 8, 0.5 mM urea peroxide, 0.1 mM p-phenylphenol, […], 0.025% Tween 20, and 5×10^−5 M of each compound in the table below except the compound designated Ref. 1 were tested for production of chemiluminescence by reacting a 100 μL aliquot with 3.5×10^−16 moles of HRP. The reagent formulation for Ref. 1 comprised 0.05 M tris buffer, pH 8.6, 0.25 mM urea peroxide, 0.05 mM p-phenylphenol, 0.5 mM EDTA, 0.0125% Tween 20, and 3.3×10^−4 M Ref. 1. For comparison, data are provided for reference compounds 1 and 2.

Series [2] addresses T1, HRP. The series can be described thus: Chemiluminescent detection of HRP with compound 1. The series is classed as biochemical, horseradish. How it is done:
Reagent compositions comprising 0.01 M tris buffer, pH 7.0, 0.5 mm urea peroxide, 0.1 mM p-phenylphenol, 1 mM EDTA, 0.025% Tween 20 and 5×10^−5 M compound 1 were tested for production of chemiluminescence by reacting triplicate 100 μL aliquots with 10 μL of HRP in the range 1.4×10^−15 to 1.4×10^−20 moles. Light production ensued upon mixing and reached maximum intensity in about 1 min.

Another series has as its target T2, HRP-labeled antibody (Armoracia rusticana, UniProt P00433).
T2 sequence (P00433 31-338): T1 sequence (P00433 31-338)
Briefly: Western blot of β-galactosidase via HRP-labeled antibody on PVDF membrane. The series is classed as biochemical. How it is done:
A western blot assay of β-galactosidase as the test antigen was conducted according to the procedure described in U. K. Laemmli, Nature (London), 227, 680 (1970) using a PVDF membrane. β-Galactosidase standards in the range of 5000-5 pg. The detection reagent containing Compound 1 permitted detection to be performed in under 1 minute.
For orientation: In western blotting, separated proteins are transferred to a membrane and probed.

Series [3] addresses T1, HRP. The series can be described thus: Chemiluminescent detection of HRP with compounds 52 and 53. To be noted: 3×10^−4 M compound, HRP 1.4×10^−16 to 1.4×10^−21 moles. The series is classed as biochemical, horseradish. How it is done:
Reagent compositions comprising 0.025 M tris buffer, pH 8.0, 2.5 mM urea peroxide, 4 mM p-hydroxycinnamic acid, 0.5 mM EDTA, 0.1% Tween 20 and 3×10^−4 M compound 52 or 53 were tested for production of chemiluminescence by reacting triplicate 100 μL aliquots with 10 μL of HRP in the range 1.4×10^−16 to 1.4×10^−21 moles. […] The relation between peak chemiluminescence intensity and amount of enzyme is depicted in FIG. 8.

For series [4], the target named is T1, HRP. The series can be described thus: Comparison of signal intensity (Example 17): maximum signal with HRP. To be noted: 3.5×10^−16 moles of HRP. It is filed as biochemical, horseradish. The method, then: The maximum signal produced by each of compounds 40-51 was compared by reacting a 100 μL aliquot of reagent compositions comprising 0.025 M tris buffer, pH 8, 2.5 mM urea peroxide, 4 mM p-hydroxycinnamic acid, 0.5 mM EDTA, 0.1% Tween 20, and either 1 mM, 0.3 mM, 0.15 mM or 0.05 mM of the test compound with 3.5×10^−16 moles of HRP. Each reagent reached maximum light intensity in 1-3 minutes.

Series [5] has as its target T1, HRP. The series can be described thus: Stability of working solutions by solution assay. It is filed as physicochemical, horseradish. How it is done:
Reagent stability of the working solutions of compound 53 and compound 46 was assessed by preparing the working solution by combining 50 μL aliquots of the two component solutions and storing the mixed solutions at 4° C. or room temperature. The working solution contained 0.025 M tris buffer, pH 8, 2.5 mM urea peroxide, 4 mm p-hydroxycinnamic acid, 0.5 mM EDTA, 0.1% Tween 20, and 0.05 mM of the substrate. Chemiluminescent assays were run with 3.5×10^−16 moles of HRP at 25° C. Maximum intensity results were compared to the values obtained with fresh reagent prepared from the individual components stored at 4° C. […] The composition containing compound 53 was unchanged after four months at 4° C., that containing compound 46 was unchanged after 9 months at 4° C.

Series [6] can be described thus: Solubility in the aqueous formulation. The series is classed as physicochemical. As to conditions: 0.025 M tris pH 8 formulation with 0.1% Tween 20.
Series [7] has as its target T1, HRP. The series can be described thus: Comparison of signal intensity (Example 10): maximum signal with HRP. To be noted: 3×10^−4 M compound, 0.025 M tris pH 8, 2.5 mM urea peroxide, 4 mM p-hydroxycinnamic acid; 3.5×10^−16 moles of HRP. It is filed as biochemical, horseradish. The method, then:
The maximum signal produced by each of compounds 14, and 27-29 was compared by reacting a 100 μL aliquot of reagent compositions comprising 0.025 M tris buffer, pH 8, 2.5 mM urea peroxide, 4 mM p-hydroxycinnamic acid, 0.5 mM EDTA, 0.1% Tween 20, and 3×10^−4 M of the test compound with 3.5×10^−16 moles of HRP. Each reagent reached maximum light intensity in about 1 minute.

The test system of another series is peroxidase. The series can be described thus: Chemiluminescence on reaction with peroxide and a peroxidase (general). The series is classed as biochemical. To be noted: mixtures of double bond isomers. The source says:
Reaction of ketene dithioacetal compounds of formula I, including those shown above, with peroxide and a peroxidase generate chemiluminescence which rapidly reaches very high intensity. Maximum light emission is achieved in one minute or less and remains constant for several minutes. […] No other known chemiluminescent peroxidase substrate generates high intensity chemiluminescence so rapidly. This kinetic behavior in unexpected and contrasts with the chemiluminescence time profile of structurally related compounds disclosed in the aforementioned U.S. Pat. No. 5,922,558. For example, a compound having the formula:
[drawing 18] reacted with HRP was disclosed to reach maximum chemiluminescence intensity in 7 min. The ability of the compounds of the present invention to reach a stable maximum light intensity so rapidly makes them more suitable than other chemiluminescent compounds for peroxidase detection in the rapid high throughput assays in demand today.
Compounds and compositions of the present invention are useful in a method to produce chemiluminescence by reaction with a peroxidase. Reaction of a compound of the invention with a peroxidase and a peroxide in an aqueous buffer solution produces easily detectable visible chemiluminescence. Light intensity reaches a maximum level rapidly at room temperature, typically in about 1 minute. […]

[8] abbreviates: 5×10^−5 M compound, 0.01 M tris pH 8, 0.5 mM urea peroxide, 0.1 mM p-phenylphenol, 0.025% Tween 20.
[9] abbreviates: 1 mM test compound (Formulation 1.0).

Molecules are shown by their SMILES.

As to `CSC(SC)=C1c2ccccc2N(c2ccccc2)c2ccccc21` [Compound 1], the Signal/Background on HRP [1] (setting [8]) is listed as 8060. Moreover, the “time to reach maximum intensity” value on HRP [2] (5×10^−5 M compound 1, pH 7.0, p-phenylphenol) is on record as “about 1 min”. Further, the “log-log plot of chemiluminescence intensity vs. amount of enzyme” value on HRP [2] (HRP 1.4×10^−15 to 1.4×10^−20 moles) is “linear over the entire range tested”. Besides, the “lower abundance bands able to be imaged” value on HRP-labeled antibody (β-galactosidase) is recorded as not above 1 pg. Also, the “time in which detection could be performed” value on HRP-labeled antibody (β-galactosidase standards 5000-5 pg) was “under 1 minute”.

Regarding `CSC(SCCCOCCCS(=O)(=O)[O-])=C1c2ccccc2N(Cc2ccccc2)c2ccccc21.[Na+]` [Compound 53], on HRP [3], the “rise of light to maximum intensity” value was “reached maximum intensity rapidly”. Further, the Signal/Background at HRP [4] (0.15 mM test compound) came to 5742. Besides, the “working solution composition after storage” value on HRP [5] (four months at 4° C.) is reported as “unchanged”. Also, the “reagent performance on storage of working solution” value on HRP [5] (up to three weeks at room temperature, 0.05 mM substrate) is on record as “no deterioration of reagent performance”.

`CN1c2ccccc2C(=C2Sc3ccccc3S2)c2ccccc21` [Compound 51] gave a Signal/Background on HRP [4] (0.05 mM test compound) of 4264. Also, the “solubility in the aqueous formulation” value in [6] is reported as “very poorly soluble”.

At HRP [4] (0.15 mM test compound), `CSC(SCCCSCCCS(=O)(=O)[O-])=C1c2ccccc2N(c2ccccc2)c2ccccc21.[Na+]` [Compound 54] showed a Signal/Background of 2502.

For `CSC(SCCCOS(=O)(=O)[O-])=C1c2ccccc2N(Cc2ccccc2)c2ccccc21.[Na+]` [Compound 55], at HRP [4] (0.3 mM test compound), the Signal/Background came out at 5408.

`CSC(SCCCS(=O)(=O)[O-])=C1c2ccccc2N(Cc2ccc(Cl)cc2)c2ccccc21.[Na+]` [Compound 28]: the Signal/Background on HRP [7] is listed as 6717.

For the compound `COC(Sc1ccccc1)=C1c2ccccc2N(C)c2ccccc21` [Ref. 2, reference compound], at HRP [1] (setting [8]), the Signal/Background is 325.

For the compound `O=S(=O)([O-])CCCOCCCSC(SCCCO)=C1c2ccccc2N(Cc2ccccc2)c2ccccc21.[Na+]` [Compound 52], the “rise of light to maximum intensity” value at HRP [3] is reported as “reached maximum intensity rapidly”. The compound also registered a Signal/Background at HRP [4] (0.15 mM test compound) of 5840.

The compound `O=S(=O)([O-])CCCOCCCN1c2ccccc2C(=C2Sc3ccccc3S2)c2ccccc21.[Na+]` [Compound 50] displayed a Signal/Background on HRP [4] (0.3 mM test compound) of 1651.

Turning to `c1ccc(CSC(SCc2ccccc2)=C2c3ccccc3N(c3ccccc3)c3ccccc32)cc1` [Compound 3], the generation of chemiluminescence entry with peroxidase is “Compounds 3, 4 and 6 were obtained as mixtures of double bond isomers. Each of these compounds generates chemiluminescence in the present invention”.

For `OC1CSC(=C2c3ccccc3N(c3ccccc3)c3ccccc32)SC1` (centres unmarked) [Compound 45], the Signal/Background on HRP [4] (0.3 mM test compound) is reported as 2102.

In the case of `CSC(SC)=C1c2ccccc2N(Cc2ccc(O)cc2)c2ccccc21` [Compound 40], at HRP [4] (setting [9]), the Signal/Background was 4011.

On HRP [7], `O=S(=O)([O-])CCCSC(SCc1ccccc1)=C1c2ccccc2N(Cc2ccccc2)c2ccccc21.[Na+]` [Compound 38] showed a Signal/Background of 26000.

For `CCCCCCCCSC(SC)=C1c2ccccc2N(c2ccccc2)c2ccccc21` [Compound 6], in the series with peroxidase, the generation of chemiluminescence entry was “Compounds 3, 4 and 6 were obtained as mixtures of double bond isomers. Each of these compounds generates chemiluminescence in the present invention”.

Turning to `c1ccc(CN2c3ccccc3C(=C3SCCOCCOCCOCCOCCS3)c3ccccc32)cc1` [Compound 49], the Signal/Background at HRP [4] (0.05 mM test compound) was found to be 4853. The “solubility in the aqueous formulation” value in [6] is “very poorly soluble”.

`O=S(=O)([O-])CCCSC(SCc1ccc(Cl)cc1)=C1c2ccccc2N(Cc2ccccc2)c2ccccc21.[Na+]` [Compound 41] returned a Signal/Background on HRP [4] (setting [9]) of 14000.

In turn, `O=P([O-])([O-])OCCCOC1CSC(=C2c3ccccc3N(Cc3ccccc3)c3ccccc32)SC1.[Na+].[Na+]` (centres unmarked) [Compound 48] gave a Signal/Background at HRP [4] (setting [9]) of 4219.

In turn, `CN1c2ccccc2C(=C(OP(=O)([O-])[O-])Sc2ccccc2)c2ccccc21.[Na+].[Na+]` [Ref. 1, reference compound] had a Signal/Background on HRP [1] (Ref. 1 formulation: 3.3×10^−4 M, 0.05 M tris pH 8.6, 0.25 mM urea peroxide, 0.05 mM p-phenylphenol) of 53. On HRP-labeled antibody (β-galactosidase), the “chemiluminescence intensity and exposure needed, compared with the compound 1 reagent” value was “lower intensity chemiluminescence and required longer exposures”; the “lower abundance bands able to be imaged” value is “not possible to image”.

The compound `O=S(=O)([O-])CCCSC(SCc1ccccc1)=C1c2ccccc2N(c2ccccc2)c2ccccc21.[Na+]` [Compound 42] returned a Signal/Background on HRP [4] (setting [9]) of 9100.

For the compound `O=S(=O)([O-])CCCOC1CSC(=C2c3ccccc3N(Cc3ccccc3)c3ccccc32)SC1.[Na+]` (centres unmarked) [Compound 47], the Signal/Background on HRP [4] (setting [9]) came out at 7228.

`CCCCCCCCSC(SCCCS(=O)(=O)[O-])=C1c2ccccc2N(c2ccccc2)c2ccccc21.[Li+]` [Compound 13] registered a Signal/Background on HRP [1] (setting [8]) of 7626.

On to `CSC(SC)=C1c2ccccc2N(C)c2ccccc21` [Compound 2], for which, on HRP [1] (setting [8]), the Signal/Background was 953.

In the case of `COc1ccc(CN2c3ccccc3C(=C(SC)SCCCS(=O)(=O)[O-])c3ccccc32)cc1.[Na+]` [Compound 29], the Signal/Background on HRP [7] is on record as 6621.
